A word on the IC50: it is the concentration that inhibits the measured activity by half. Low values mean inhibition by little substance, high ones a need for much substance. As usually defined, the Km is the substrate concentration at which the rate is half of its maximum. The term Vmax denotes the top rate of the reaction or transport when substrate is in excess.

Data set [1] deals with T1, Solute carrier organic anion transporter family member 1B1 (Homo sapiens, UniProt Q9Y6L6).
T1 sequence (Q9Y6L6 whole entry): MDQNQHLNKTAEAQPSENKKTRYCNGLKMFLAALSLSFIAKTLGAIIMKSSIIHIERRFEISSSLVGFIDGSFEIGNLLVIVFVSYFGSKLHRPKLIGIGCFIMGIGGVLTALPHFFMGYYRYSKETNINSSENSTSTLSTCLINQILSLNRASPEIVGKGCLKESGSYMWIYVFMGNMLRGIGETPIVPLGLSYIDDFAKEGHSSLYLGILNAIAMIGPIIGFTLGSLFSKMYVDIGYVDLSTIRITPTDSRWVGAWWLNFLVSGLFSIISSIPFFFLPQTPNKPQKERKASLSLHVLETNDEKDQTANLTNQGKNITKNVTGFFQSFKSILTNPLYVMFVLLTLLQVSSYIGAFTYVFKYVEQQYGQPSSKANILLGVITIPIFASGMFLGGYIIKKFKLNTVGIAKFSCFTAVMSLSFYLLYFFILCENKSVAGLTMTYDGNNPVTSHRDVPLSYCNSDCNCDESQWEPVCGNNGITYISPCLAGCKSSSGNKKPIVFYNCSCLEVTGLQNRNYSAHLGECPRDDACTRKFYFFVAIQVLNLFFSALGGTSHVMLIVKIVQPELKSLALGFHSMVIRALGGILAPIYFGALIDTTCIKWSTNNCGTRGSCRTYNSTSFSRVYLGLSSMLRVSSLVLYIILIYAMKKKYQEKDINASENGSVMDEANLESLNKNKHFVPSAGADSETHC
The experiment in a line: Inhibition of OATP1B1 (unknown origin) expressed in HEK293 cells using estrone-3-sulfate substrate. The data set is classed as ADME, cell-based.

Data set [2] concerns the target T1, Solute carrier organic anion transporter family member 1B1. The experiment in a line: Inhibition of OATP1B1 (unknown origin) expressed in HEK293 cells using pitavastatin substrate. The data set is classed as ADME, cell-based.
Data set [3] shares this target. As to the kind of experiment: Inhibition of OATP1B1 (unknown origin) expressed in HEK293 cells using estradiol-17beta-glucuronide substrate. The data set is classed as ADME, cell-based.
Substrate in data set [4]: C[C@]12CC[C@@H]3c4ccc(O)cc4CC[C@H]3[C@@H]1CC[C@@H]2O[C@@H]1O[C@H](C(=O)O)[C@@H](O)[C@H](O)[C@H]1O
As to the kind of experiment: (§1) Drug uptake in HEK293 cells expressing OATP1B1 (unknown origin) assessed as OATP1B1-mediated drug transport. The data set is classed as ADME, cell-based, Homo sapiens.

Substrate in data set [5]: O=C(O)C[C@H](O)C[C@H](O)/C=C/c1c(C2CC2)nc2ccccc2c1-c1ccc(F)cc1
Described as §1. The data set is classed as ADME, cell-based, Homo sapiens.

Consider `Cc1ccc(C)c(OCCCC(C)(C)C(=O)O)c1` [GEMFIBROZIL], for which the IC50 worked out at 130 µM in data set [1], 38 µM in data set [2] and 11 µM in data set [3].
Consider `CO[C@H]1/C=C/O[C@@]2(C)Oc3c(C)c(O)c4c(O)c(c(/C=N/N5CCN(C)CC5)c(O)c4c3C2=O)NC(=O)/C(C)=C\C=C\[C@H](C)[C@H](O)[C@@H](C)[C@@H](O)[C@@H](C)[C@H](OC(C)=O)[C@@H]1C` [RIFAMPIN], for which the half-inhibitory concentration (IC50) in data set [1] came out at 2.3 µM; in data set [3] it was 0.3 µM.

B1: Solute carrier organic anion transporter family member 1B1 (Homo sapiens) (protein)
chain: MDQNQHLNKTAEAQPSENKKTRYCNGLKMFLAALSLSFIAKTLGAIIMKSSIIHIERRFEISSSLVGFIDGSFEIGNLLVIVFVSYFGSKLHRPKLIGIGCFIMGIGGVLTALPHFFMGYYRYSKETNINSSENSTSTLSTCLINQILSLNRASPEIVGKGCLKESGSYMWIYVFMGNMLRGIGETPIVPLGLSYIDDFAKEGHSSLYLGILNAIAMIGPIIGFTLGSLFSKMYVDIGYVDLSTIRITPTDSRWVGAWWLNFLVSGLFSIISSIPFFFLPQTPNKPQKERKASLSLHVLETNDEKDQTANLTNQGKNITKNVTGFFQSFKSILTNPLYVMFVLLTLLQVSSYIGAFTYVFKYVEQQYGQPSSKANILLGVITIPIFASGMFLGGYIIKKFKLNTVGIAKFSCFTAVMSLSFYLLYFFILCENKSVAGLTMTYDGNNPVTSHRDVPLSYCNSDCNCDESQWEPVCGNNGITYISPCLAGCKSSSGNKKPIVFYNCSCLEVTGLQNRNYSAHLGECPRDDACTRKFYFFVAIQVLNLFFSALGGTSHVMLIVKIVQPELKSLALGFHSMVIRALGGILAPIYFGALIDTTCIKWSTNNCGTRGSCRTYNSTSFSRVYLGLSSMLRVSSLVLYIILIYAMKKKYQEKDINASENGSVMDEANLESLNKNKHFVPSAGADSETHC
For B1, in data set [4], the Km came to 3.6 µM and the Vmax is 0.0002 µmol/min. Further, in data set [5], the Km was found to be 4.8 µM and the maximum rate (Vmax) stood at 0.00045 µmol/min.

The values above are taken from ChEMBL document CHEMBL3525911, “The development, characterization, and application of an OATP1B1 inhibition assay in drug discovery” (Drug Metab Dispos, 2012).
